Earlier results as cited in patent publication US6251620A, “Three dimensional structure of a ZAP tyrosine protein kinase fragment and modeling methods” (priority 1997, dated 2001).
Non-standard residues stand in square brackets, D forms with d. pY = N[C@@H](Cc1ccc(OP(=O)(O)O)cc1)C(=O)O; Nle = CCCC[C@H](N)C(=O)O

How the values were obtained:
BDF1 mice = BDF1 mice given DBA/2 spleen:lymph node cells; usable as positive controls
MRL/Ipr-mice = conditions: SLE
ZAP-NC = conditions: in vitro binding of ZAP-NC with synthetic phosphopeptides (ref. 25)

Row | Compound | activity in CGVHD model (BDF1 mice) | binding hierarchy (ZAP-NC) | also measured
1 | C=CC[C@@H]1/C=C(\C)C[C@H](C)C[C@H](OC)[C@H]2O[C@@](O)(C(=O)C(=O)N3CCCC[C@H]3C(=O)O[C@H](/C(C)=C/[C@@H]3CC[C@@H](O)[C@H](OC)C3)[C@H](C)[C@@H](O)CC1=O)[C@H](C)C[C@@H]2OC [FK506] | active in this model | – | side effects (kidney and central nervous system): serious side effects in the kidney and central nervous system; kidney toxicity (patients receiving FK506, in some cases kidney transplant required after the liver transplant): severe kidney toxicity has been observed
2 | O=P1(N(CCCl)CCCl)NCCCO1 (centres unmarked) [cyclophosphamide] | active in this model | – | effect on course of disease (MRL/Ipr-mice): can prevent and reverse the course of disease
3 | Cc1oncc1C(=O)Nc1ccc(C(F)(F)F)cc1 [leflunomide] | active in this model | – | effect on course of disease (MRL/Ipr-mice): can prevent and reverse the course of disease
4 | C[C@]12C=CC(=O)C=C1CC[C@@H]1[C@@H]2[C@@H](O)C[C@@]2(C)[C@H]1CC[C@]2(O)C(=O)CO [prednisolone] | active in this model | – | –
5 | Ac.Asn.Gln.Leu.pTyr.Asn.Glu.Leu.Asn.Leu.Gly.Arg.Arg.Glu.Glu.pTyr.Asp.Val.Leu.Asp.NH2 [Ligand 5] | – | .zeta.1 =.zeta.2 >ε=.zeta.3 | –
6 | Ac.Asp.Gly.Leu.pTyr.Gln.Gly.Leu.Ser.Thr.Ala.Thr.Lys.Asp.Thr.pTyr.Asp.Ala.Leu.His.NH2 (Ac-DGL[pY]QGLSTATKDT[pY]DALH-NH2; SMILES CC(=O)N[C@@H](CC(=O)O)C(=O)NCC(=O)N[C@@H](CC(C)C)C(=O)N[C@@H](Cc1ccc(OP(=O)(O)O)cc1)C(=O)N[C@@H](CCC(N)=O)C(=O)NCC(=O)N[C@@H](CC(C)C)C(=O)N[C@@H](CO)C(=O)N[C@H](C(=O)N[C@@H](C)C(=O)N[C@H](C(=O)N[C@@H](CCCCN)C(=O)N[C@@H](CC(=O)O)C(=O)N[C@H](C(=O)N[C@@H](Cc1ccc(OP(=O)(O)O)cc1)C(=O)N[C@@H](CC(=O)O)C(=O)N[C@@H](C)C(=O)N[C@@H](CC(C)C)C(=O)N[C@@H](Cc1c[nH]cn1)C(N)=O)[C@@H](C)O)[C@@H](C)O)[C@@H](C)O) [Ligand 7] | – | .zeta.1 =.zeta.2 >ε=.zeta.3 | –
7 | Ac.Gly.Leu.pTyr.Asn.Glu.Leu.Gln.Lys.Asp.Lys.Nle.Ala.Glu.Ala.pTyr.Ser.Glu.Ile.Gly.NH2 (Ac-GL[pY]NELQKDK[Nle]AEA[pY]SEIG-NH2; SMILES CCCC[C@H](NC(=O)[C@H](CCCCN)NC(=O)[C@H](CC(=O)O)NC(=O)[C@H](CCCCN)NC(=O)[C@H](CCC(N)=O)NC(=O)[C@H](CC(C)C)NC(=O)[C@H](CCC(=O)O)NC(=O)[C@H](CC(N)=O)NC(=O)[C@H](Cc1ccc(OP(=O)(O)O)cc1)NC(=O)[C@H](CC(C)C)NC(=O)CNC(C)=O)C(=O)N[C@@H](C)C(=O)N[C@@H](CCC(=O)O)C(=O)N[C@@H](C)C(=O)N[C@@H](Cc1ccc(OP(=O)(O)O)cc1)C(=O)N[C@@H](CO)C(=O)N[C@@H](CCC(=O)O)C(=O)N[C@H](C(=O)NCC(N)=O)[C@@H](C)CC) [Ligand 6] | – | .zeta.1 =.zeta.2 >ε=.zeta.3 | –
